Data from PMC9148403, “1,3,5-triazines inhibit osteosarcoma and avert lung metastasis in a patient-derived orthotopic xenograft mouse model with favorable pharmacokinetics” (Iranian Journal of Basic Medical Sciences, 2022).

What was measured:
PI3K = PI3K luminescent kinase assay (Promega); format: biochemical; conditions: read-out: Kinase inhibition IC50 PI3K
Description: (§1) PI3K and mTOR kinase inhibition assay
(§2) The inhibitory activity of developed molecules against PI3K and mTOR was identified using luminescent kinase assay, and Lance Ultra assay from Promega, USA, respectively as per our earlier reported procedure ([38]).

K562 = experiment: Cellular antiproliferation assay (CCK-8), K562; format: cell-based, human; conditions: K562 cells, read-out: Cell growth inhibition IC50 K562
mTOR = mTOR (Homo sapiens, UniProt P42345); experiment: mTOR Lance Ultra kinase assay; format: biochemical; conditions: read-out: Kinase inhibition IC50 mTOR
Description: as §1, §2

KU812 = experiment: Cellular antiproliferation assay (CCK-8), KU812; format: cell-based, human; conditions: KU812 cells, read-out: Cell growth inhibition IC50 KU812
Saos-2 = experiment: Cellular antiproliferation assay (CCK-8), Saos-2; format: cell-based, human; conditions: Saos-2 cells, read-out: Cell growth inhibition IC50 Saos-2
Description: The human osteosarcoma cancer cell lines MG-63, U2-OS, and Saos-2 were purchased from CBSIBCB of the Chinese Academy of Sciences (Shanghai, China)
Cellular antiproliferation assay using cell counting kit (CCK-8)
The CCK-8 assay was used in the current study to analyze the effect of compounds on cellular proliferation. The transfected cells were seeded in a 96-well plate, and to this CCK-8 (20 µl) was added. The enzyme microplate reader at 450 nm was used to record the absorbance. The inhibitory effect on cellular proliferation was obtained as per the given formula: Inhibitory activity (%) = (1 - Atest/Acontrol) × 100 %.

Saos-2 cells [1] = experiment: Cell cycle analysis by flow cytometry; format: cell-based, human; conditions: Saos-2 cells, 10, 20 and 30 µM
Description: The effect of compound 8a (0, 10, 20, and 30 µM) was investigated on the cell cycle of Saos-2 cells as per our earlier reported procedure using a FACSCalibur flow cytometer with CellQuest V.3.3 software (BD Biosciences, USA) ([38]).

[2] = system: patient-derived osteosarcoma; experiment: Osteosarcoma patient-derived orthotopic xenograft (PDOX) mouse model; format: in vivo, Athymic nu/nu nude mice
Description: Surgical orthotopic implantation (SOI) for the establishment of the osteosarcoma PDOX model
The PDOX model in Athymic nu/nu nude mice was established according to our earlier reported procedure ([38]). The tumor tissue for implantation was obtained from a OS patient with written informed consent.
The mice were arbitrarily categorized into four dissimilar groups (n=6), and the treatment schedule lasted for 14 days as follows. The compound 8a was dissolved in the solution of PEG400/Tween 80/Saline solution at 10/10/80 % in volume, respectively prior to intraperitoneal administration.
Groups 2, 3, and 4 received compound 8a (2, 5, and 10 mg/kg, respectively, IP, daily)
The control animals received the vehicle only.
The length and width of the tumor along with the bodyweight of mice were recorded.
The tumor volume was calculated with the following formula:
Tumor volume (mm^3)= length (mm) × width (mm) × […])⁄2
Examination of lung histopathology
At the end of the experiment, the lung tissues were harvested and fixed in formalin (10%). The tissues were further entrenched in paraffin, sectioned using a microtome into 5-μm thickness. The resulting sections were dyed using hematoxylin-eosin (HE).

[3] = Pharmacokinetic assessment in SD rats; format: in vivo; conditions: for AUC 0- INF / C max / T max / T ½: rat, in vivo
Description: Pharmacokinetic assessment
The compound 8a was administered to female SD rats in a single dose of 1 and 5 mg/kg using intra-venomous and per-oral route in the vehicle. The blood samples from the rats were collected in a timely manner starting from 2 min to 24 hr. The serum was extracted from the blood-aliquots for the estimation of various pharmacokinetic parameters (T1/2, Tmax, Cmax, AUC0-INF) developed using WinNonlin software using LC-MS/MS (Applied Biosystem, USA).

Saos-2 cells [4] = experiment: Flow cytometric apoptosis assay (Annexin V/PI); format: cell-based, human; conditions: Saos-2 cells, 10, 20 and 30 µM
Description: Flow cytometric apoptosis assay
The effect of compound 8a (0, 10, 20, and 30 µM) on apoptosis was investigated on Saos-2 cells as per our earlier reported procedure using a FACSCalibur flow cytometer with CellQuest V.3.3 software (BD Biosciences, USA) ([38]).

Molecule `Cc1nc(NC(=O)c2ccc(CN3CCN(c4ccc(Br)cc4)CC3)cc2)nc(Nc2nccc(-c3nccs3)n2)n1` [Compound 8b] has an IC50 (PI3K) of 885 nM, an IC50 (K562) of 730 nM and an IC50 (mTOR) of 389 nM. The IC50 (KU812) was 830 nM and the IC50 (Saos-2) was 268 nM.

For `Cc1nc(NC(=O)c2ccc(CN3CCN(c4ccc(Cl)cc4)CC3)cc2)nc(Nc2nccc(-c3nccs3)n2)n1` [Compound 8a], the “Effect on cell cycle of Saos-2 cells” value (Saos-2 cells [1]) was “G2/M phase arrest”, the IC50 (PI3K) was 786 nM and the IC50 (K562) was 620 nM. The “Effect on lung metastasis (lung histopathology)” value ([2]; PDOX mice, 2 mg/kg IP daily, 14 days) was “does not have a significant effect”, the “Effect on lung metastasis (lung histopathology)” value ([2]; PDOX mice, 5 mg/kg IP daily, 14 days) was “less necrotic lesions and minimum interstitial hemorrhages” and the “Effect on lung metastasis (lung architecture, histopathology)” value ([2]; PDOX mice, 10 mg/kg IP daily, 14 days) was “significantly restored close to normal”. For the same molecule, the “Body weight of mice” value ([2]; PDOX mice, 2, 5 and 10 mg/kg IP daily, 14 days, vs control) was “improvement in body weight”, the Tumor volume ([2]; PDOX mice, 2, 5 and 10 mg/kg IP daily, at the end of the study) was “significantly reduced” and the IC50 (mTOR) was 345 nM. The “Tolerability in the pharmacokinetic study” value ([3]; SD rats, 1 mg/kg IV and 5 mg/kg PO single dose) was “well-tolerated”, the “AUC 0- INF” value ([3]; iv, 1 mg/kg) was 61.201 µg·h/mL and the C max ([3]; iv, 1 mg/kg) was 8126 ng/mL. The T max ([3]; iv, 1 mg/kg) was 0.13 h, the “T ½” value ([3]; iv, 1 mg/kg) was 0.75 h and the “AUC 0- INF” value ([3]; po, 5 mg/kg) was 297.326 µg·h/mL. For the same molecule, the C max ([3]; po, 5 mg/kg) was 410 ng/mL, the T max ([3]; po, 5 mg/kg) was 2.67 h and the “T ½” value ([3]; po, 5 mg/kg) was 3.5 h. The IC50 (KU812) was 722 nM, the “Effect on apoptosis of Saos-2 cells” value (Saos-2 cells [4]) was “dose-dependently increases apoptosis” and the IC50 (Saos-2) was 210 nM.

With `COc1ccc(N2CCN(Cc3ccc(C(=O)Nc4nc(C)nc(Nc5nccc(-c6nccs6)n5)n4)cc3)CC2)cc1` [Compound 8f] the IC50 (PI3K) was 1250 nM, the IC50 (K562) was 1200 nM and the IC50 (mTOR) was 834 nM. For the same molecule, the IC50 (KU812) was 1230 nM and the IC50 (Saos-2) was 905 nM.

For `Cc1nc(NC(=O)c2ccc(CN3CCN(c4ccc([N+](=O)[O-])cc4)CC3)cc2)nc(Nc2nccc(-c3nccs3)n2)n1` [Compound 8d], the IC50 (PI3K) was 905 nM, the IC50 (K562) was 822 nM and the IC50 (mTOR) was 414 nM. It also gave an IC50 (KU812) of 950 nM and an IC50 (Saos-2) of 340 nM.

Work on `Cc1ccc(N2CCN(Cc3ccc(C(=O)Nc4nc(C)nc(Nc5nccc(-c6nccs6)n5)n4)cc3)CC2)cc1` [Compound 8c] yielded an IC50 (PI3K) of 967 nM, an IC50 (K562) of 900 nM and an IC50 (mTOR) of 490 nM. For the same molecule, the IC50 (KU812) was 1030 nM and the IC50 (Saos-2) was 530 nM.

`Cc1nc(NC(=O)c2ccc(CN3CCN(c4ccc(O)cc4)CC3)cc2)nc(Nc2nccc(-c3nccs3)n2)n1` [Compound 8e] gave an IC50 (PI3K) of 987 nM, an IC50 (K562) of 887 nM and an IC50 (mTOR) of 456 nM. It also gave an IC50 (KU812) of 1140 nM and an IC50 (Saos-2) of 478 nM.
